# Measured values from patent US12319641B2, “Lobaric acid derivative having PTP-1B inhibitory activity, preparation method therefor and use thereof” (SNBIOSCIENCE INC., priority 2019, dated 2025).
# Read-outs that look alike come from different tables or passages of the source.
# Tests used:
# [1] = tested on: db/db mice (type 2 diabetes model animal); assay: Blood glucose after daily oral administration in diabetic disease model animals; assay type: in vivo; settings: for antidiabetic effects by oral administration: diabetic disease model animals
# Experimental: To more accurately measure antidiabetic effects of dimethyl lobamide, 200 μl of PBS as a control and 50 mg/kg of dimethyl lobamide compound as an experimental group were orally administered daily to 7-week-old male db/db mice (type 2 diabetes model animal, C57/BLKS/J-db/db, Korea Research Institute of Bioscience and Biotechnology). Thereafter, blood glucose was measured once a week. At this time, after oral administration, blood glucose was measured after fasting for 6 hours.
# [2] = target: T1, protein tyrosine phosphatase-1B (PTP-1B) (Homo sapiens, UniProt P18031); settings: comparison compounds; lobarstin from Korean Patent Registration No. 10-1481141; read-out: IC50 of PTP-1B inhibitory activity, comparison value; cited from earlier work
# T1 construct: purchased Bioneer, Korea
# T1 sequence (P18031 1-435): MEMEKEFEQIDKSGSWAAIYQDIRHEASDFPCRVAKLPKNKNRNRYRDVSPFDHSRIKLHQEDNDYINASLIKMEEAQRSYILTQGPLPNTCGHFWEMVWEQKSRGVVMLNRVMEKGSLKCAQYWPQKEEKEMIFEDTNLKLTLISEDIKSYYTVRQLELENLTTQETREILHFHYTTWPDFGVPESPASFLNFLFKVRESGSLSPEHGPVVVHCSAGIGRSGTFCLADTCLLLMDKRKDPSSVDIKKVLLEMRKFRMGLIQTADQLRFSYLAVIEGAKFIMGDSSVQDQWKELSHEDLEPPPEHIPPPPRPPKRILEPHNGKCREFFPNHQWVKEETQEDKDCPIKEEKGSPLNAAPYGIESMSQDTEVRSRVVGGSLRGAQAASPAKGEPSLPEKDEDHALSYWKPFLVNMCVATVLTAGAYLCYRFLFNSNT
# [3] = target: T1, protein tyrosine phosphatase-1B (PTP-1B); assay: PTP-1B inhibitory activity, enzyme activity measured spectroscopically with pNPP substrate; assay type: biochemical
# Experimental: In order to analyze protein tyrosine phosphatase-1B (PTP-1B) inhibitory activity, enzyme activity was measured spectroscopically.
# Specifically, to 0.5 μg/mL of PTP-1B (Bioneer, Korea), PTP-1B buffer (50 mM Bis-tris buffer, pH 6.5, 1 mM EDTA, 1 mM DTT), dimethyl lobamide (M11A7) (0, 0.4, 0.8, 1.6, 3.12, 6.25, 12.5, 25 nM) and the substrate pNPP (para Nitrophenyl phosphate, Sigma, USA) were added and reacted at room temperature for 30 minutes. Then, 10 N NaOH was added thereto, followed by reaction at room temperature for 5 minutes to terminate the reaction between PTP-1B, dimethyl lobamide and the substrate. Thereafter, the absorbance was measured at 405 nm.
# [4] = Body weight after oral administration in diabetic disease model animals; assay type: in vivo; settings: db/db mice; for change in body weight compared to the control: oral administration
# Experimental: To 7-week-old male db/db mice (type 2 diabetes model animal, C57/BLKS/J-db/db, Korea Research Institute of Bioscience and Biotechnology), 200 μl of PBS as a control and 50 mg/kg of dimethyl lobamide as an experimental group were orally administered daily. After administration, in order to investigate the change in body weight, the compound (dimethyl-lobamide) was orally administered twice a week at a fixed time, and then the body weight was measured using an animal scale.
"IC50 ([3]; 0.5 μg/mL PTP-1B, pNPP, room temperature 30 minutes, absorbance 405 nm)",SMILES,antidiabetic effects by oral administration [1],IC50 [2],PTP-1B inhibition rate ([3]; 0-25 nM),"average blood glucose on day 0 ([1]; db/db mice, 50 mg/kg oral daily, after fasting 6 hours, day 0)","average blood glucose on day 7 ([1]; db/db mice, 50 mg/kg oral daily, after fasting 6 hours, day 7)","average blood glucose on day 14 ([1]; db/db mice, 50 mg/kg oral daily, after fasting 6 hours, day 14)","increase in blood glucose versus control ([1]; db/db mice, 50 mg/kg oral, day 0 to 14)","average body weight on day 0 ([4]; 50 mg/kg oral, day 0)","average body weight on day 7 ([4]; 50 mg/kg oral, day 7)","average body weight on day 14 ([4]; 50 mg/kg oral, day 14)",change in body weight compared to the control [4],change in body weight compared to the control ([4]; listed as dimethyl-lobamide)
,"CCC/C=C1/OC(=O)c2c(Oc3c(O)cc(O)c(C(=O)O)c3CCCCC)cc(OC)cc21 [lobarstin, reference compound]",no antidiabetic effects by oral administration,154 nM,,,,,,,,,,
2.16 nM,CCCCCc1c(Oc2cc(OC)cc(C(=O)CCCC)c2C(=O)N(C)C)c(O)cc(O)c1C(=O)O [dimethyl lobamide],could have the antidiabetic effects by oral administration,,increased in a concentration-dependent manner,193 mg/dL,194 mg/dL,268 mg/dL,lower increase in blood glucose than the control,30.95 g,31.78 g,34.86 g,body weight reducing effects were demonstrated,no significant change in body weight
